The source of these data is PMC4646422 (ACS chemical biology, 2015).

Values joined by “and” are separate entries in the source; they are usually repeats but may differ in a detail not shown here. Equal values may be shown once. Read-outs that look alike come from different tables or passages of the source. Some results are limits rather than exact numbers.

Data set [1] addresses malate dehydrogenase (MDH). The experiment in a line: Malate dehydrogenase. It is filed as biochemical. The conditions noted are these: for inhibition of MDH (in words): counter-screening enzyme. (In general: A counterscreen serves to expose hits that act by an unwanted route or on another target.)
Data set [2] is classed as physicochemical. The conditions noted are these: for radius: DLS, 25 °C, at twice the compound's CAC; for radius / CAC (critical aggregation concentration): ND = not detected to precipitation limit; for CAC (critical aggregation concentration): dynamic light scattering, 50 mM KPi pH 7.0, 1% DMSO; for particle formation observed by DLS: up to solubility limits; for concentration at which the molecule may aggregate: authors' summary in the discussion.

The subject of a further data set is CYP3A4. The conditions noted are these: read-out: EC50, CYP3A4; representative literature value; cited from earlier work.
In a further data set the test system is P-glycoprotein. The following applies: read-out: EC50, P-glycoprotein; representative literature value; cited from earlier work.
The target of a further data set is AmpC β-lactamase (Escherichia coli, UniProt P00811). The experiment in a line: biochemical. The conditions noted are these: for inhibition of AmpC β-lactamase (in words): counter-screening enzyme; for IC50: IC50 vs AmpC β-lactamase. It counts as biochemical.
Chain of AmpC β-lactamase (P00811 20-377): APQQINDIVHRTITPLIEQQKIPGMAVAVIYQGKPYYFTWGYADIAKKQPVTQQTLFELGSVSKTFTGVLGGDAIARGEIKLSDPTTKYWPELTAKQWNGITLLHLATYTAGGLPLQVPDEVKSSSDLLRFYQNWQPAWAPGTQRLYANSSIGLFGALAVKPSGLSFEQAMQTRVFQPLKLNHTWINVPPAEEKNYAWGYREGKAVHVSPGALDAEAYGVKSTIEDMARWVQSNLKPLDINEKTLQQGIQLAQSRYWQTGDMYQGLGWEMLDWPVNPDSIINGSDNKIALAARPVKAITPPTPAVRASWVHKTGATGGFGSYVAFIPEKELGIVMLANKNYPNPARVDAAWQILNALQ
The next data set concerns CDK2. The conditions noted are these: read-out: EC50, CDK2; representative literature value; cited from earlier work.
The next data set deals with HIV-1 protease. The following applies: read-out: EC50, HIV-1 protease; representative literature value; cited from earlier work.
In a further data set the target is Ca^2+-ATPase. The conditions noted are these: read-out: EC50, Ca^2+-ATPase; representative literature value; cited from earlier work.
For data set [3], the target named is T1, HIV-2 protease (Human immunodeficiency virus type 2 subtype A, UniProt P04584). The data set can be described thus: HIV-2 protease inhibition assay. The conditions noted are these: IC50 vs HIV-2 protease, 50 mM sodium acetate, pH 5.5, 200 mM sodium chloride.
T1 sequence (P04584 514-612 limits assumed): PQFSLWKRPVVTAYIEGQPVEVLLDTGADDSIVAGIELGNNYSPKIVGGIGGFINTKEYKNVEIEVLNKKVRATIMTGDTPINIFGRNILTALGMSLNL
Data set [4] concerns the target T1, HIV-2 protease. The conditions noted are these: read-out: EC50, HIV-2 protease; representative literature value; cited from earlier work.
The test system of the next data set is GL01. The conditions noted are these: read-out: EC50, GL01; representative literature value; cited from earlier work.
The test system of another data set is AMPK. The conditions noted are these: read-out: EC50, AMPK; representative literature value; cited from earlier work.
A further data set relates to 11 β HSD1. The conditions noted are these: read-out: EC50, 11 β HSD1; representative literature value; cited from earlier work.
For a further data set, the system named is DYRK1A and CLK1. The following applies: read-out: EC50, DYRK1A and CLK1; representative literature value; cited from earlier work.
Data set [5] concerns the target Trypsin from porcine pancreas (Sus scrofa, UniProt P00761). The experiment in a line: Trypsin inhibition assay. It is filed as biochemical. The conditions noted are these: IC50 vs trypsin, 50 mM potassium phosphate.
A further data set has as its system trypsin. The conditions noted are these: read-out: EC50, trypsin; representative literature value; cited from earlier work.
The next data set deals with MMP. The following applies: read-out: EC50, MMP; representative literature value; cited from earlier work.
The subject of a further data set is ERR. The following applies: read-out: EC50, ERR; representative literature value; cited from earlier work.
In a further data set the test system is CDK. The following applies: read-out: EC50, CDK; representative literature value; cited from earlier work.
For another data set, the system named is MATE1. The following applies: read-out: EC50, MATE1; representative literature value; cited from earlier work.
In the next data set the test system is OCT2. The conditions noted are these: read-out: EC50, OCT2; representative literature value; cited from earlier work.
For a further data set, the system named is hCNT. The following applies: read-out: EC50, hCNT; representative literature value; cited from earlier work.
A further data set relates to PTP1B. The following applies: read-out: EC50, PTP1B; representative literature value; cited from earlier work.
For another data set, the system named is ASICs. The conditions noted are these: read-out: EC50, ASICs; representative literature value; cited from earlier work.
Another data set has as its system Hsp90. The conditions noted are these: read-out: EC50, Hsp90; representative literature value; cited from earlier work.
The test system of a further data set is GLUT4. The following applies: read-out: EC50, GLUT4; representative literature value; cited from earlier work.
The mark [6] stands for this setting: read-out: IC50 vs MDH, no detergent, 50 mM potassium phosphate, pH 7.0, ND = not detected to precipitation limit.
[7] abbreviates: read-out: IC50 vs MDH, with detergent, 50 mM potassium phosphate, pH 7.0 + 0.01% (v/v) Triton X-100, ND = not detected to precipitation limit.
The mark [8] stands for this setting: read-out: IC50 vs MDH, with DTT, with 1 mM DTT.
Where [9] appears, read: with detergent, pH 7.0 + 0.01% (v/v) Triton X-100.

Chain of Trypsin from porcine pancreas (P00761 9-231): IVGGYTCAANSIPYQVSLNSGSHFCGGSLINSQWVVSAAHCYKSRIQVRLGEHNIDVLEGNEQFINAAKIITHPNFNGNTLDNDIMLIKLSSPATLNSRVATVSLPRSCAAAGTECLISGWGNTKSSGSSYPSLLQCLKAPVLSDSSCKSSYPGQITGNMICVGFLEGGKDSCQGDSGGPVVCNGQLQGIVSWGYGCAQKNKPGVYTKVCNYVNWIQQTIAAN

For orientation: IC50 means the concentration that gives 50% inhibition. `Oc1ccc2c(c1)OC[C@]1(O)Cc3cc(O)c(O)cc3[C@H]21` [brazilin]: in data set [1] (setting [6]), the IC50 was 1.6 µM. Also, the IC50 in data set [1] (setting [7]) is 84 µM. In [2], the radius came out at 52 ± 10 nm and the “CAC (critical aggregation concentration)” value was 57 ± 7 µM.

In general, EC50 refers to the concentration giving half of the maximal effect. Consider `C[C@]12CC[C@H](O)C[C@H]1CC[C@@H]1[C@@H]2CC[C@]2(C)[C@@H](c3ccc(=O)oc3)CC[C@]12O` [bufalin], for which the IC50 in data set [1] (setting [6]) was 101 µM; in data set [1] (setting [7]) it was > 200 µM. Moreover, the half-maximal effective concentration (EC50) is 14.5 µM with CYP3A4 and 100 µM in the data set on P-glycoprotein. The compound also returned a radius in data set [2] of 1317 ± 394 nm. The “CAC (critical aggregation concentration)” value in data set [2] came out at 51 ± 3 µM.

Regarding `COc1ccc2c(c1OC)CN1CCc3cc4c(cc3[C@@H]1C2)OCO4` [canadine], the “inhibition of MDH (in words)” value in data set [1] is “did not inhibit”. Further, on AmpC β-lactamase, the “inhibition of AmpC β-lactamase (in words)” value is reported as “did not inhibit”. In addition, in data set [2], the radius was 52 ± 14 nm, the “CAC (critical aggregation concentration)” value was determined as 95 ± 11 µM and the “particle formation observed by DLS” value is “formed particles”. In addition, in the data set with CDK2, the EC50 was > 50 µM.

Consider `COc1cc(/C=C/C(=O)CC(=O)/C=C/c2ccc(O)c(OC)c2)ccc1O` [curcumin], for which the figures for the EC50 in the data set on HIV-1 protease, on Ca^2+-ATPase and at HIV-2 protease [4] were 100 µM, ~3 µM and 250 µM, respectively. Moreover, the IC50 in data set [1] (read-out: IC50 vs MDH, no DTT) was 9 µM; in data set [1] (setting [6]) it was 9 µM; in data set [1] (setting [8]), 10 µM; in data set [1] (setting [7]), > 30 µM; against HIV-2 protease [3] (no detergent, 1 mM EDTA and 0.5 mM TCEP) it was 19 µM; on HIV-2 protease [3] (with detergent, 1 mM EDTA and 0.5 mM TCEP + 0.01% (v/v) Triton X-100), > 100 µM. Further, the radius in data set [2] is recorded as 465 ± 30 nm. Moreover, the “CAC (critical aggregation concentration)” value in data set [2] is 17 µM and 17 ± 0.44 µM.

`Oc1cc(O)c2cc(O)c(-c3cc(O)c(O)c(O)c3)[o+]c2c1` [delphinidin]: the 50% inhibitory concentration (IC50) was 27 µM in [1] (setting [6]) and > 100 µM in [1] (setting [7]). Besides, the EC50 with GL01 is 1.9 µM. In [2], the “particle formation observed by DLS” value is recorded as “no particles were observed”.

`COc1cc2c(O)c3c(c(-c4ccc5c(c4)OCO5)c2cc1OC)C(=O)OC3` [diphyllin]: the IC50 in [1] (setting [6]) was 49 µM; in data set [1] (setting [7]), > 200 µM. The compound further returned a radius in data set [2] of 269 ± 49 nm. In addition, in [2], the “CAC (critical aggregation concentration)” value amounted to 40 ± 4.0 µM.

`Cc1cc(O)c2c(c1)C(=O)c1cc(O)cc(O)c1C2=O` [emodin]: the concentration giving a half-maximal response (EC50) is 0.5 µM in the data set with AMPK; 4.2 to 7.2 µM with 11 β HSD1; 4.2 to 6.1 µM in the data set on DYRK1A and CLK1; 50 µM in the data set with trypsin; 12.8 to 20.1 µM in the data set on MMP. The IC50 in data set [1] (read-out: IC50 vs MDH, no DTT) is 28 µM; in [1] (setting [6]), 28 µM; in data set [1] (setting [8]) it was 18 µM; in [1] (setting [7]), > 100 µM; against AmpC β-lactamase (no DTT) it was 27 µM; on AmpC β-lactamase (with DTT, with 1 mM DTT), 17 µM. The half-maximal inhibitory concentration (IC50) is 49 µM in data set [5] (no detergent, pH 7.0) and > 500 µM in data set [5] (setting [9]). In data set [2], this compound gave a radius of 231 ± 61 nm. Further, the “CAC (critical aggregation concentration)” value in data set [2] came out at 28 ± 2 µM.

For the compound `Oc1ccc([C@H]2COc3cc(O)ccc3C2)cc1` [equol], the 50% effective concentration (EC50) with ERR was 5.8 µM. For the same compound, in [2], the “concentration at which the molecule may aggregate” value is ≥ 100 µM and the “particle formation observed by DLS” value is “no particles were observed”.

`O=c1c(O)c(-c2ccc(O)cc2)oc2cc(O)cc(O)c12` [kaempferol]: the concentration giving a half-maximal response (EC50) with CDK was 2.5 to 51 µM. The IC50 in [1] (setting [6]) was 61 µM; in data set [1] (setting [7]), > 100 µM; in [5] (no detergent, pH 7.0), 110 µM; in data set [5] (setting [9]) it was > 250 µM. The compound further yielded a radius in data set [2] of 61 ± 20 nm. In data set [2], the “CAC (critical aggregation concentration)” value turned out to be 81 ± 26 µM.

For the compound `COc1ccc2c(c1OC)C(=O)O[C@@H]2[C@H]1c2c(cc3c(c2OC)OCO3)CCN1C` [noscapine], the “inhibition of MDH (in words)” value in data set [1] is recorded as “no inhibition”. The EC50 in the data set on MATE1 was 34.5 µM; in the data set with OCT2 it was 2.6 µM. The “inhibition of AmpC β-lactamase (in words)” value against AmpC β-lactamase is “no inhibition”. Moreover, the “particle formation observed by DLS” value in data set [2] is given as “no particles were observed”.

Turning to `O=C(CCc1ccc(O)cc1)c1c(O)cc(O)cc1O[C@@H]1O[C@H](CO)[C@@H](O)[C@H](O)[C@H]1O` [phlorizin], the EC50 in the data set on hCNT was 100 to 200 µM. For the same compound, the “inhibition of MDH (in words)” value in data set [1] is recorded as “no inhibition”. Moreover, the “inhibition of AmpC β-lactamase (in words)” value on AmpC β-lactamase is “no inhibition”. In [2], the “particle formation observed by DLS” value is “no particles were observed”.

On to `COc1cc(O)c2c(c1)C(=O)c1cc(C)cc(O)c1C2=O` [physcion], for which the IC50 in data set [1] (read-out: IC50 vs MDH, no DTT) is 11 µM; in [1] (setting [6]) it was 11 µM; in data set [1] (setting [8]), 8 µM; in [1] (setting [7]), > 20 µM; against AmpC β-lactamase (no DTT) it was 7 µM; against AmpC β-lactamase (with DTT, with 1 mM DTT), 11 µM. Also, the results for the half-maximal effective concentration (EC50) in the data set with PTP1B and in the data set on MMP were 20 µM and 26.8 to 45.3 µM, respectively. This compound registered a radius in data set [2] of 320 ± 83 nm. In data set [2], the “CAC (critical aggregation concentration)” value was 0.32 ± 0.025 µM.

In the case of `O=c1c(-c2ccc(O)cc2)coc2c([C@@H]3O[C@H](CO)[C@@H](O)[C@H](O)[C@H]3O)c(O)ccc12` [puerarin], the EC50 with ASICs was 38.4 µM. In [1] (setting [6]), the concentration for half-maximal inhibition (IC50) amounted to 135 µM. Moreover, the IC50 in data set [1] (setting [7]) was 156 µM. For the same compound, in data set [2], the radius worked out at 78 ± 25 nm; the “concentration at which the molecule may aggregate” value is ≥ 100 µM; the “CAC (critical aggregation concentration)” value is 135 µM and 135 ± 40 µM.

As for `COc1cc(C2Oc3cc([C@H]4Oc5cc(O)cc(O)c5C(=O)[C@@H]4O)ccc3OC2CO)ccc1O` (stereo partly shown) [silibinin], the half-maximal inhibitory concentration (IC50) in data set [1] (setting [6]) is 12 µM; in data set [1] (setting [7]), > 100 µM. Moreover, the EC50 in the data set on Hsp90 is 250 µM; with GLUT4 it was 60 µM. In [2], the radius was determined as 53 ± 16 nm. Further, the “CAC (critical aggregation concentration)” value in data set [2] came out at 0.47 ± 0.15 µM.
